# Laboratory results taken from patent publication US12180197B2, “GLP-1R modulating compounds” (Gilead Sciences, Inc., priority 2021, dated 2024).
# Target: GLP-1R (Homo sapiens, UniProt P43220)
# Experiment: GLP-1R Activation - cAMP Assay 1
# Assay type: cell-based
# Settings: cAMP increase in CHO cells stably expressing GLP-1R; 30 minutes incubation; 10 point dose response
# Protocol: GLP-1R Activation—cAMP Assay 1
# GLP-1R activation by a compound of the present disclosure was quantified by measuring cAMP increase in CHO cells stably expressing GLP-1R (MultiSpan product #C1267-1a). The cells were harvested and plated in growth medium (DMEM/F-12 (Corning product #10-090-CV) supplemented with 10% FBS (HyClone product #SH30071-03), penicillin/streptomycin (Corning product #30-002CI) and 10 µg/ml puromycin (Gibco product #A11138-03)) at 1,000 cells/well in a 384-well plate (Greiner product #781080). The cells were then incubated overnight at 37° C., 5% CO2. The next day, the medium was removed and the cells were washed with DPBS (Corning product #21-031-CM) before adding the assay medium (HBSS, Corning product #21-023-CV) with 20 mM Hepes (Gibco product #15630-080) and 0.1% BSA (Rockland Immunochemicals product #BSA-1000)). Following the medium change, the cells were incubated for 1 hour at 37° C., 5% CO2. The tested GLP-1 compound was added to the cells in a 10 point dose response followed by a 30 minutes incubation at 37° C., 5% CO2. cAMP concentration increase was then detected using Cisbio's cAMP Gs Dynamic Kit (product #62AM4PEC) according to the manufacturer's protocol. The response was plotted against the log of the agonist concentration and fitted to a sigmoidal equation to determine the EC50.
# Chain of GLP-1R (P43220 24-463): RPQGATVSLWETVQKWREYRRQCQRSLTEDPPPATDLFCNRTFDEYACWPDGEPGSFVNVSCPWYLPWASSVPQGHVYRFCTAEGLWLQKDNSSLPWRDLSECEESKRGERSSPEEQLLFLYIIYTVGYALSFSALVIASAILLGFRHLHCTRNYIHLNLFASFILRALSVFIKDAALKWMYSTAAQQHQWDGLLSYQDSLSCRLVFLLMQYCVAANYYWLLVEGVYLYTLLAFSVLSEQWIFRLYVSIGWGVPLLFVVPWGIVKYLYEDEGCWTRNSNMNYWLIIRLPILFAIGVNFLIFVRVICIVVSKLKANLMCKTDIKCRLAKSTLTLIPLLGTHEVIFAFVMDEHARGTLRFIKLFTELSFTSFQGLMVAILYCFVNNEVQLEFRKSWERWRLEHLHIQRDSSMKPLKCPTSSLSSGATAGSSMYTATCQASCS
row,Compound,EC50 [nM]
1,"COCCn1c(CN2CCC(c3cccc(OCc4ccc5c(c4)COC5=O)n3)CC2)nc2ccc(C(=O)O)cc21 [Example 43, 1-(2-Methoxyethyl)-2-((4-(6-((1-oxo-1,3-dihydroisobenzofuran-5-yl)methoxy)pyridin-2-yl)piperidin-1-yl)methyl)-1H-benzo[d]imidazole-6-carboxylic acid]",345
2,"COCCn1c(CN2CCC(c3cccc(OCc4cc5cn[nH]c5cc4F)n3)CC2)nc2ccc(C(=O)O)cc21 [Example 39, 2-((4-(6-((6-fluoro-1H-indazol-5-yl)methoxy)pyridin-2-yl)piperidin-1-yl)methyl)-1-(2-methoxyethyl)-1H-benzo[d]imidazole-6-carboxylic acid]",> 10000
3,"COCCn1c(CN2CCC(c3cccc(OCc4ccc(C5CC5)cc4)n3)CC2)nc2ccc(C(=O)O)cc21 [Example 38, 2-((4-(6-((4-cyclopropylbenzyl)oxy)pyridin-2-yl)piperidin-1-yl)methyl)-1-(2-methoxyethyl)-1H-benzo[d]imidazole-6-carboxylic acid]",58.3
4,"COCCn1c(CN2CCC(c3cccc(OCc4c(F)cc(C(N)=O)cc4F)n3)CC2)nc2ccc(C(=O)O)cc21 [Example 37, 2-((4-(6-((4-carbamoyl-2,6-difluorobenzyl)oxy)pyridin-2-yl)piperidin-1-yl)methyl)-1-(2-methoxyethyl)-1H-benzo[d]imidazole-6-carboxylic acid]",2200
5,"COCCn1c(CN2CCC(c3cccc(OCc4ccc5nonc5c4)n3)CC2)nc2ccc(C(=O)O)cc21 [Example 27, 2-((4-(6-(benzo[c][1,2,5]oxadiazol-5-ylmethoxy)pyridin-2-yl)piperidin-1-yl)methyl)-1-(2-methoxyethyl)-1H-benzo[d]imidazole-6-carboxylic acid]",66.8
6,"COCCn1c(CN2CCC(c3cccc(OCc4c(F)c(F)c(F)c(F)c4F)n3)CC2)nc2ccc(C(=O)O)cc21 [Example 14, 1-(2-methoxyethyl)-2-((4-(6-((perfluorophenyl)methoxy)pyridin-2-yl)piperidin-1-yl)methyl)-1H-benzo[d]imidazole-6-carboxylic acid]",> 100
7,"COCCn1c(CN2CCC(c3cccc(OCc4cccc(-c5noc(C)n5)c4)n3)CC2)nc2ccc(C(=O)O)cc21 [Example 10, 1-(2-methoxyethyl)-2-((4-(6-((3-(5-methyl-1,2,4-oxadiazol-3-yl)benzyl)oxy)pyridin-2-yl)piperidin-1-yl)methyl)-1H-benzo[d]imidazole-6-carboxylic acid]",66.9
8,"COCCn1c(CN2CCC(c3cccc(OCc4cccc5c4OC(F)(F)O5)n3)CC2)nc2ccc(C(=O)O)cc21 [Example 1, 2-((4-(6-((2,2-difluorobenzo[d][1,3]dioxol-4-yl)methoxy)pyridin-2-yl)piperidin-1-yl)methyl)-1-(2-methoxyethyl)-1H-benzo[d]imidazole-6-carboxylic acid]",28.5
9,"COCCn1c(CN2CCC(c3cccc(OCc4ccc(C(=O)N(C)C)cc4F)n3)CC2)nc2ccc(C(=O)O)cc21 [Example 11, 2-((4-(6-((4-(dimethylcarbamoyl)-2-fluorobenzyl)oxy)pyridin-2-yl)piperidin-1-yl)methyl)-1-(2-methoxyethyl)-1H-benzo[d]imidazole-6-carboxylic acid]",9910
10,"COCCn1c(CN2CCC(c3cccc(OCc4ccc(C#N)c5ccccc45)n3)CC2)nc2ccc(C(=O)O)cc21 [Example 25, 2-((4-(6-((4-cyanonaphthalen-1-yl)methoxy)pyridin-2-yl)piperidin-1-yl)methyl)-1-(2-methoxyethyl)-1H-benzo[d]imidazole-6-carboxylic acid]",11.3
11,"COCCn1c(CN2CCC(c3cccc(OCc4ccc5c(c4)C(=O)OC5)n3)CC2)nc2ccc(C(=O)O)cc21 [Example 44, 1-(2-methoxyethyl)-2-((4-(6-((3-oxo-1,3-dihydroisobenzofuran-5-yl)methoxy)pyridin-2-yl)piperidin-1-yl)methyl)-1H-benzo[d]imidazole-6-carboxylic acid]",109
12,"COCCn1c(CN2CCC(c3cccc(OCc4ccc5cnccc5c4)n3)CC2)nc2ccc(C(=O)O)cc21 [Example 26, 2-[[4-[6-(6-isoquinolylmethoxy)-2-pyridyl]-1-piperidyl]methyl]-3-(2-methoxyethyl)benzimidazole-5-carboxylic acid]",41.3
13,"COCCn1c(CN2CCC(c3cccc(OCc4ccc(-c5ccccc5)cc4)n3)CC2)nc2ccc(C(=O)O)cc21 [Example 12, 2-((4-(6-([1,1′-biphenyl]-4-ylmethoxy)pyridin-2-yl)piperidin-1-yl)methyl)-1-(2-methoxyethyl)-1H-benzo[d]imidazole-6-carboxylic acid]",1070
14,"COCCn1c(CN2CCC(c3cccc(OCc4ccc(C(O)(C(F)(F)F)C(F)(F)F)cc4)n3)CC2)nc2ccc(C(=O)O)cc21 [Example 2, 2-((4-(6-((4-(1,1,1,3,3,3-hexafluoro-2-hydroxypropan-2-yl)benzyl)oxy)pyridin-2-yl)piperidin-1-yl)methyl)-1-(2-methoxyethyl)-1H-benzo[d]imidazole-6-carboxylic acid]",1260
15,"COCCn1c(CN2CCC(c3cccc(OCc4cccc5c4cnn5C)n3)CC2)nc2ccc(C(=O)O)cc21 [Example 8, 1-(2-methoxyethyl)-2-((4-(6-((1-methyl-1H-indazol-4-yl)methoxy)pyridin-2-yl)piperidin-1-yl)methyl)-1H-benzo[d]imidazole-6-carboxylic acid]",1310
16,"COCCn1c(CN2CCC(c3cccc(OCc4ccc(C(C)(C)O)cc4)n3)CC2)nc2ccc(C(=O)O)cc21 [Example 29, 2-((4-(6-((4-(2-hydroxypropan-2-yl)benzyl)oxy)pyridin-2-yl)piperidin-1-yl)methyl)-1-(2-methoxyethyl)-1H-benzo[d]imidazole-6-carboxylic acid]",1440

# The remaining molecules from weak to strong by EC50, led by results:
row,EC50 [nM],Compound
1,297,"COCCn1c(CN2CCC(c3cccc(OCc4ccc(COC)cc4)n3)CC2)nc2ccc(C(=O)O)cc21 [Example 30, 1-(2-methoxyethyl)-2-((4-(6-((4-(methoxymethyl)benzyl)oxy)pyridin-2-yl)piperidin-1-yl)methyl)-1H-benzo[d]imidazole-6-carboxylic acid]"
2,60.8,"COCCn1c(CN2CCC(c3cccc(OCc4ccc5ncsc5c4)n3)CC2)nc2ccc(C(=O)O)cc21 [Example 28, 2-((4-(6-(benzo[d]thiazol-6-ylmethoxy)pyridin-2-yl)piperidin-1-yl)methyl)-1-(2-methoxyethyl)-1H-benzo[d]imidazole-6-carboxylic acid]"
3,48.5,"COCCn1c(CN2CCC(c3cccc(OCc4ccc5ccncc5c4)n3)CC2)nc2ccc(C(=O)O)cc21 [Example 35, 2-((4-(6-(isoquinolin-7-ylmethoxy)pyridin-2-yl)piperidin-1-yl)methyl)-1-(2-methoxyethyl)-1H-benzo[d]imidazole-6-carboxylic acid]"
4,39.9,"COCCn1c(CN2CCC(c3cccc(OCc4ccc(Cl)c5ccccc45)n3)CC2)nc2ccc(C(=O)O)cc21 [Example 4, 2-((4-(6-((4-chloronaphthalen-1-yl)methoxy)pyridin-2-yl)piperidin-1-yl)methyl)-1-(2-methoxyethyl)-1H-benzo[d]imidazole-6-carboxylic acid]"
5,32.4,"COCCn1c(CN2CCC(c3cccc(OCc4ccc5ncccc5c4)n3)CC2)nc2ccc(C(=O)O)cc21 [Example 3, 1-(2-methoxyethyl)-2-((4-(6-(quinolin-6-ylmethoxy)pyridin-2-yl)piperidin-1-yl)methyl)-1H-benzo[d]imidazole-6-carboxylic acid]"
6,29,"COCCn1c(CN2CCC(c3cccc(OCc4ccc(Cl)c5occc45)n3)CC2)nc2ccc(C(=O)O)cc21 [Example 31, 2-((4-(6-((7-chlorobenzofuran-4-yl)methoxy)pyridin-2-yl)piperidin-1-yl)methyl)-1-(2-methoxyethyl)-1H-benzo[d]imidazole-6-carboxylic acid]"
7,22.2,"C#Cc1ccc(COc2cccc(C3CCN(Cc4nc5ccc(C(=O)O)cc5n4CCOC)CC3)n2)cc1 [Example 13, 2-((4-(6-((4-ethynylbenzyl)oxy)pyridin-2-yl)piperidin-1-yl)methyl)-1-(2-methoxyethyl)-1H-benzo[d]imidazole-6-carboxylic acid]"
8,19.8,"COCCn1c(CN2CCC(c3cccc(OCc4cccc5scnc45)n3)CC2)nc2ccc(C(=O)O)cc21 [Example 34, 2-((4-(6-(benzo[d]thiazol-4-ylmethoxy)pyridin-2-yl)piperidin-1-yl)methyl)-1-(2-methoxyethyl)-1H-benzo[d]imidazole-6-carboxylic acid]"
9,10.5,"COCCn1c(CN2CCC(c3cccc(OCc4ccc5c(c4)OC(F)(F)O5)n3)CC2)nc2ccc(C(=O)O)cc21 [Example 6, 2-((4-(6-((2,2-difluorobenzo[d][1,3]dioxol-5-yl)methoxy)pyridin-2-yl)piperidin-1-yl)methyl)-1-(2-methoxyethyl)-1H-benzo[d]imidazole-6-carboxylic acid]"
10,6.6,"COCCn1c(CN2CCC(c3cccc(OCc4ccc(C#N)c5cccnc45)n3)CC2)nc2ccc(C(=O)O)cc21 [Example 42, 2-((4-(6-((5-cyanoquinolin-8-yl)methoxy)pyridin-2-yl)piperidin-1-yl)methyl)-1-(2-methoxyethyl)-1H-benzo[d]imidazole-6-carboxylic acid]"
